Results: patent US20240239821A1, “N-ACYL FOSMIDOMYCIN PRODRUG ANALOGS AS NOVEL ANTIINFECTIVE AGENTS” (THE GEORGE WASHINGTON UNIVERSITY, priority 2021, published 2024)
Read-outs that look alike come from different tables or passages of the source.

Experiments:
P falciparum strain 3D7 = assay: microbe, parasite or virus in culture; format: cell-based, Plasmodium falciparum
Protocol: P falciparum strain 3D7 (wild-type, WT) was obtained through MR4 as part of the BEi Resources Repository, NIAID, NIH (www.mr4.org). AP falciparum strain containing increased levels of MEP pathway metabolites, had]
(MRA-1257), and its isogenic compliment, had]+ Pfl-Iadl-GFP (MRA-1258), were generated in strain 3D7, as reported (Guggisberg et al.). Parasites were cultured in a 2% suspension of human erythrocytes and RPMI 1640 (Sigma) medium supplemented with 27 mM sodium bicarbonate, 11 mM glucose, 5 mM HEPES, I mM sodium pyruvate, 0.37 mM hypoxanthine, 0.01 mM thymidine, 10 μg/mL gentamicin, and 0.5% Albumax (Gibco) at 37° C., 5% 02/5% CO2/90% N2 atmosphere.

P. falciparum DXR [1] = target: T1, P. falciparum DXR (Plasmodium falciparum, UniProt Q8IKG4); conditions: background statement; cited from earlier work
T1 construct: His6 (N); made in house; host or cells: Escherichia coli Rosetta2(DE3)
T1 sequence (Q8IKG4 73-488): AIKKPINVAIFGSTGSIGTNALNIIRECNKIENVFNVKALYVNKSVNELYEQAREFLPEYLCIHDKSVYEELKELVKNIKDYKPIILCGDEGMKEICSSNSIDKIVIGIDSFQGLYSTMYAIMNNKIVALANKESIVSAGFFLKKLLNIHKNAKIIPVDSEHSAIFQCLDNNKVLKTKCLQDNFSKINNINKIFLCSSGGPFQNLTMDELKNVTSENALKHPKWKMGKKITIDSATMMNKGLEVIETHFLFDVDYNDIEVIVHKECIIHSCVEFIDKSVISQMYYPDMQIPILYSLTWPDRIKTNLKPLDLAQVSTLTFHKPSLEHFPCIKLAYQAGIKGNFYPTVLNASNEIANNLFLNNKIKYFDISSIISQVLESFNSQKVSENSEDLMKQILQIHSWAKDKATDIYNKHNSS

P. falciparum DXR [2] = target: T1, P. falciparum DXR; assay: Plasmodium falciparum DXR enzyme IC50; format: biochemical
Protocol: Recombinant protein was expressed in Escherichia coli Rosetta2(DE3) cells obtained from Novagen (San Diego, CA). E. coli was cultured at 37° C. in Luria-Bertani (LB) media supplemented with 100 μg/mL ampicillin and 34 μg/ml chloramphenicol with constant shaking at 250 rpm. Agar (1.5% wt/vol) was added to prepare solid media.
Cloning. Expression, and Purification of P falciparum DXR
The P falciparum dxr gene was truncated to begin at Lys 75 to remove the apicoplast signaling sequence. A Pf 3D7 trophozoite cDNA library (MRA-297) was acquired from BEi resources and used as the template for amplification of the PIDXR gene. […] 3′ reverse and cloned into a pETl 00/D-TOPO vector to yield pPIDXR, facilitating the expression of an N-terminal His6-tagged protein.
The expression plasmid (pPIDXR) was separately transformed into chemically competent E. coli Rosetta2(DE3) cells for protein expression. To express the His-tagged protein, a 10 mL overnight seed culture was added to IL of LB media and then incubated with shaking at 37° C. and 250 rpm. At an OD600 of 1.8, protein expression was induced with addition of isopropyl b-D-thiogalactopyranoside (IPTG) to 0.5 mM and the culture was further incubated with shaking at 37° C. and 250 rpm for an additional 18 hours. Cells were harvested via centrifugation (4648×g, 20 min, 4° C.) and stored at −80° C. Protein was subsequently isolated and purified from the cells via chemical lysis and affinity chromatography.
Cells were lysed with lysis buffer A (100 mM Tris pH 8.0, 0.032% lysozyme, 3 mL per gram cell pellet), followed by lysis buffer B (0.1 M CaCh, 0.1 M MgCh, 0.1 M NaCl, 0.020% DNase, 0.3 mL per gram cell pellet).
The column was washed with 20 column volumes of Ix equilibrium buffer (50 mM HEPES pH 7.5, 300 mM NaCl), 10 column volumes of Ix wash buffer (50 mM HEPES pH 7.5, 300 mM NaCl, 10 mM imidazole), and 15 column volumes of 2× wash buffer (100 mM HEPES pH 7.5, 600 mM NaCl, 20 mM imidazole). The protein was eluted with 5 column volumes of Ix elution buffer (150 mM imidazole pH 7.0, 300 mM NaCl). Buffer was exchanged with 0.1 M Tris pH 7.5, I mM NaCl, 5 mM DTT during concentration by ultrafiltration. Protein concentration was determined using Advanced Protein Assay Reagent (Cytoskeleton, Denver CO) with y-globulins (Sigma-Aldrich) as the standard. Purified protein was visualized via Coomassie stained SDS-PAGE.

[3] = whole cell, read-out: P. f. IC50
[4] = recombinant His-tagged enzyme, read-out: P. f. DXR IC50
[5] = Plasmodium falciparum, 3D7, read-out: P. f. IC50

| SMILES | IC50 (P falciparum strain 3D7; [3]) [nM] | IC50 (P. falciparum DXR [2]; [4]) [nM] | other results |
| --- | --- | --- | --- |
| CC(=O)N(O)C/C=C/P(=O)(OCOC(=O)c1ccccc1)OCOC(=O)c1ccccc1 [BOM, CH3] | 11 |  |  |
| O=CN(O)C/C=C/P(=O)(OCOC(=O)c1ccccc1)OCOC(=O)c1ccccc1 [BOM, H] | 42 |  |  |
| O=C(OCOP(=O)(/C=C/CN(O)C(=O)c1ccccc1)OCOC(=O)c1ccccc1)c1ccccc1 [BOM, phenyl, [({[(E)-benzoyloxy]methoxy}[(1E)-3-(N-hydroxy-1-phenylformamido)prop-1-en-1-yl]phosphoryl)oxy]methyl benzoate] | 297 |  |  |
| CC(=O)N(O)CCCP(=O)(O)O [FR900098] |  |  | IC50 (P. falciparum DXR [1]): 24 nM |
| O=C(c1ccc(Cl)c(Cl)c1)N(O)C/C=C/P(=O)(O)O [NH4,3,4-dichlorophenyl] | 129 |  |  |
| O=C(c1cc(Cl)cc(Cl)c1)N(O)C/C=C/P(=O)(O)O [NH4,3,5-dichlorophenyl] | 218 |  |  |
| O=C(c1cccc(Cl)c1)N(O)C/C=C/P(=O)(O)O [NH4,3-chlorophenyl] | 116 |  |  |
| O=C(c1cccc(F)c1)N(O)C/C=C/P(=O)(O)O [NH4,3-fluorophenyl] | 352 |  |  |
| O=C(c1cccc(C(F)(F)F)c1)N(O)C/C=C/P(=O)(O)O [NH4,3-trifluoromethylphenyl] |  | 49 |  |
| O=C(c1ccc(F)cc1)N(O)C/C=C/P(=O)(O)O [NH4,4-fluorophenyl] | 173 | 38 |  |
| COc1ccc(C(=O)N(O)C/C=C/P(=O)(O)O)cc1 [NH4,4-methoxyphenyl] | 632 |  |  |
| O=C(c1ccncc1)N(O)C/C=C/P(=O)(O)O [NH4,4-pyridinyl] | 5390 |  |  |
| O=C(c1ccccc1)N(O)C/C=C/P(=O)(O)O [NH4, phenyl, Diammonium [(1E)-3-(N-hydroxy-1-phenylformamido)prop-1-en-1-yl]phosphonate] |  |  | IC50 (P. falciparum DXR [2]): 81 nM; IC50 (P falciparum strain 3D7; [5]): 273 nM |
| O=C(c1cccc2ccccc12)N(O)C/C=C/P(=O)(O)O [Na/H, 1-naphthyl] | 5480 | 1800 |  |
| O=C(c1ccc2ccccc2c1)N(O)C/C=C/P(=O)(O)O [Na/H, 2-naphthyl] | 1620 | 471 |  |
| O=C(c1cc(Cl)cc(Cl)c1)N(O)C/C=C/P(=O)(O)O [Na/H, 3,5-dichlorophenyl, Sodium hydrogen [(1E)-3-[1-(3,5-dichlorophenyl)—N-hydroxyformamido]prop-1-en-1-yl]phosphonate] |  |  | IC50 (P. falciparum DXR [2]): 64 nM; IC50 (P falciparum strain 3D7; [5]): 170 nM |
| O=C(c1cccc(Cl)c1)N(O)C/C=C/P(=O)(O)O [Na/H, 3-chlorophenyl] | 279 | 158 |  |
| O=C(c1cccc(C(F)(F)F)c1)N(O)C/C=C/P(=O)(O)O [Na/H, 3-trifluoromethylphenyl] | 188 | 48 |  |
| O=C(c1ccc(-c2ccccc2)cc1)N(O)C/C=C/P(=O)(O)O [Na/H, 4-biphenyl] | 4380 | 290 |  |
| O=C(c1ccc(F)cc1)N(O)C/C=C/P(=O)(O)O [Na/H, 4-fluorophenyl] | 121 | 41 |  |
| Cc1ccc(C(=O)N(O)C/C=C/P(=O)(O)O)cc1 [Na/H, 4-methylphenyl] | 1390 | 164 |  |
| O=C(c1ccncc1)N(O)C/C=C/P(=O)(O)O [Na/H, 4-pyridinyl] | 6520 | 519 |  |
| CC(C)(C)c1ccc(C(=O)N(O)C/C=C/P(=O)(O)O)cc1 [Na/H, 4-t-butylphenyl] | 43700 | 37900 |  |
| O=C(c1ccc(C(F)(F)F)cc1)N(O)C/C=C/P(=O)(O)O [Na/H, 4-trifluoromethylphenyl] | 2500 | 146 |  |
| CC(=O)N(O)C/C=C/P(=O)(OCOC(=O)C(C)(C)C)OCOC(=O)C(C)(C)C [POM, CH3] | 18 |  |  |
| CC(C)(C)C(=O)OCOP(=O)(/C=C/CN(O)C=O)OCOC(=O)C(C)(C)C [POM, H] | 13 |  |  |
| CC(C)(C)C(=O)OCOP(=O)(C/C=C/N(O)C(=O)c1ccccc1)OCOC(=O)C(C)(C)C [POM, phenyl, (E)-(((3-(N-hydroxybenzamido)allyl)phosphoryl)bis(oxy))bis(methylene)bis(2,2-dimethylpropanoate)] | 200 |  |  |
